Experimental data published in ChEMBL document CHEMBL1130865, “Carbaxylosides of 4-ethyl-2-oxo-2H-benzopyran-7-yl as non-hydrolyzable, orally active venous antithrombotic agents” (1998).

Assays:
Rattus norvegicus [1] = test: Antithrombotic activity was determined in rat upon oral administration at dose 20 mg/kg (4 hours before); assay type: functional
Rattus norvegicus [2] = test: Antithrombotic activity was determined in rat upon oral administration at dose 3 mg/kg (4 hours before); assay type: functional

CCc1cc(=O)oc2cc(OC3CCC(O)[C@H](O)[C@H]3O)ccc12 (some centres undefined)
Activity (Rattus norvegicus [1]): 20%

CCc1cc(=O)oc2cc(OC3OCC(O)[C@H](O)[C@H]3O)ccc12 (some centres undefined)
Activity (Rattus norvegicus [2]): 71%

CCc1cc(=O)oc2cc(OC3SCC(O)[C@H](O)[C@H]3O)ccc12 (some centres undefined)
Activity (Rattus norvegicus [2]): 71%

CCc1cc(=O)oc2cc(OC3CCC(O)C(O)C3O)ccc12 (single isomer, unassigned; (-))
Activity (Rattus norvegicus [1]): 96%
